Experimental data from patent EP3463364B1, “PYRAZINE DERIVATIVES FOR USE IN THE TREATMENT OF DISEASES ASSOCIATED WITH CELL CYCLE DYSREGULATION” (University of Patras, priority 2016, dated 2017).

Biological target: T1, Geminin (Homo sapiens, UniProt O75496)
T1 construct: the full length human Geminin ortholog was used; expressed in transfected cells; host or cells: MCF7
T1 sequence (O75496 1-209): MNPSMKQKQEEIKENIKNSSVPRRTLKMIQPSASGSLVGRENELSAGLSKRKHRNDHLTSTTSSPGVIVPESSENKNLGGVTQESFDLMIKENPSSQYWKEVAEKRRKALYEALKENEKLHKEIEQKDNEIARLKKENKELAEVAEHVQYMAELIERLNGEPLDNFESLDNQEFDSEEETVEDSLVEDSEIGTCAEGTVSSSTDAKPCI
Test: Intracellular localization of exogenous Geminin-GFP in co-transfected MCF7 cells (fluorescence microscopy)
Format: cell-based
Settings: 100µM, 24-hour incubation
Excerpt: A cellular assay was developed and applied using epithelial cells of breast adenocarcinoma (MCF7), for the purpose of the ex vivo study of the mechanism by which the inhibitory effect of the synthetic chemical compound affects the functional significance of the Geminin-Cdtl protein interaction.
Therefore, in order to determine the mechanism of action of the synthetic chemical compound AF-615/30368009, its effect on the Geminin nucleo-cytoplasmic translocation was studied ex vivo.
For the purposes of this experiment, the full length human Geminin ortholog was used as well as the protein Cdt1^DEL which corresponds to the human ortholog which lacks the amino acid residues 170-190. […]
For the implementation of the cellular assay, an appropriate number of cells were seeded onto glass coverslips and cells were allowed to culture in order to adhere. […] Then, the coverslips were washed with 1x PBS buffer (2 times), mounted on microscope slides using mounting medium containing the dye DAPI (that stains only nuclei) and were observed under a fluorescence microscope. […]
The experimental design included the transient co-transfection of MCF7 cancer cells with Geminin-GFP & dhcRed and Geminin-GFP & Cdt1^DEL-dhcRed. […] The intracellular localization of Geminin was detected by the autofluorescence of the GFP molecule. […]

## O=C(NNC(=S)N1CCOCC1)c1cnccn1 [AF-615/30368009, N'-(morpholine-4-carbothioyl)pyrazine-2-carbohydrazide]
MCF7, co-transfection with Geminin-GFP & Cdt1^DEL-dhcRed (Fig. 4)
  intracellular localization of Geminin: no detectable change
MCF7, co-transfection with Geminin-GFP & dhcRed (Fig. 4)
  percentage of cells with nuclear localization of Geminin: statistically significant increase
